The results in this text go back to US11236055B2 (Venenum Biodesign, LLC, priority 2016, dated 2022).

The target in one test is T1, mouse TGR5 receptor (Mus musculus, UniProt Q80SS6).
T1 construct: expressed in transfected cells; host or cells: HEK293-EBNA (293 c18, ATCC CRL10852), Hygromycin B selection
T1 sequence (Q80SS6 1-329): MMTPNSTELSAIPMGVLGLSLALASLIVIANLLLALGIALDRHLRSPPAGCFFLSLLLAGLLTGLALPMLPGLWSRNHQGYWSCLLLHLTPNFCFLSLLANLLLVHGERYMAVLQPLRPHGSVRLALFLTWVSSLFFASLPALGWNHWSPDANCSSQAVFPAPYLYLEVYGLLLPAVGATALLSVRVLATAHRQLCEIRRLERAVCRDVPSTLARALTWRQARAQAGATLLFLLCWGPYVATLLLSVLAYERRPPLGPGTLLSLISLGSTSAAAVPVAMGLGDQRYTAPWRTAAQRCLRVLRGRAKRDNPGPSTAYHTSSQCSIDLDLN
The experiment in a line: Mouse TGR5 cAMP production assay (HTRF, Cisbio cAMP HiRange). In kind it is cell-based. The note with it: HEK293-EBNA cells overexpressing mouse TGR5, HTRF cAMP HiRange; coded A-D. In a few lines:
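cAMP read by HTRF competition after 1 h room-temperature compound exposure of mouse TGR5-overexpressing HEK293-EBNA cells. Cells were suspended in serum-free DMEM containing 500 μM IBMX; compounds ran as 12-point half-log dilutions in duplicate; EC50 derived.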

A further test concerns the target T2, human TGR5 receptor (Homo sapiens, UniProt Q8TDU6).
T2 construct: host or cells: CHO-K1 (hTGR5-CHO cells)
T2 sequence (Q8TDU6 1-330): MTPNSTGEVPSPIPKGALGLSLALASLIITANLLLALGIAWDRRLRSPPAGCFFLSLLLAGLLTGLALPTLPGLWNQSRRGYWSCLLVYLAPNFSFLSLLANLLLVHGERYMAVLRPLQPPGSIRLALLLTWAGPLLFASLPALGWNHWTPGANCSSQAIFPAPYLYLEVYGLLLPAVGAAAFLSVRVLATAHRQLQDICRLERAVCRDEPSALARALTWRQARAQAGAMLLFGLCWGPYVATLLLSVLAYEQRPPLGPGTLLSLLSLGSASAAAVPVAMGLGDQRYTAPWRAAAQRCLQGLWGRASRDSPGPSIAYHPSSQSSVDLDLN
The experiment in a line: Human TGR5 cAMP production assay. Format: cell-based. The settings on record: human TGR5, luminescent cAMP assay; coded A-D; read-out: Human TGR5 Lum. cAMP Activity (EC50). In a few lines: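 CHO-K1 cells stably expressing human TGR5, with IBMX and cAMP antibody, were exposed to half-log serially diluted compound for 1 h at room temperature. cAMP measured by enzyme-fragment complementation luminescence (XS+ kit) after overnight incubation; EC50 values reported.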

On to `Cc1cnccc1-c1cccc([C@H](C)N(CCCCC(=O)O)S(=O)(=O)c2cccc(Cl)c2C)c1` [Compound 16AF, (S)-5-(3-chloro-2-methyl-N-(1-(3-(3-methylpyridin-4-yl)phenyl)ethyl)phenylsulfonamido)pentanoic acid], for which the values for the EC50 on mouse TGR5 receptor and at human TGR5 receptor were 100 to 999 nM and below 100 nM, respectively.
The like results for `CC(C)(NS(=O)(=O)c1ccccc1C(F)(F)F)c1cccc(-c2ccnnc2)c1` [Compound 1BL] were, in that order, 1000 to 30000 nM and 100 to 999 nM.
The like results for `Cc1cnccc1-c1cccc([C@H](C)N(CCCC(=O)O)S(=O)(=O)c2ccccc2C(F)(F)F)c1` [Compound 15, (S)-4-(N-(1-(3-(3-methylpyridin-4-yl)phenyl)ethyl)-2-(trifluoromethyl)phenylsulfonamido)-butanoic acid] were, in that order, 100 to 999 nM and below 100 nM.
For `Cc1cnccc1-c1cccc(C2CCCN2S(=O)(=O)c2ccccc2C(F)(F)F)c1` (racemic) [Compound 41, (+/−) 3-Methyl-4-(3-(1-((2-(trifluoromethyl)phenyl)sulfonyl)pyrrolidin-2-yl)phenyl)pyridine] the same measures were 100 to 999 nM and below 100 nM.
`Cc1cnccc1-c1cccc(C(C)(C)N(CCCNS(=O)(=O)CCNC(=O)NCCS(=O)(=O)O)S(=O)(=O)c2cccc(Cl)c2C)c1` [Compound 28AD, 2-(3-(2-(N-(3-((3-chloro-2-methyl-N-(2-(3-(3-methylpyridin-4-yl)phenyl)propan-2-yl)phenyl)sulfonamido)propyl)sulfamoyl)ethyl)ureido)ethane-1-sulfonic acid]: the EC50 on mouse TGR5 receptor and at human TGR5 receptor was below 100 nM each time.
With `COc1cnccc1-c1cccc(C(C)(C)NS(=O)(=O)c2ccc(Cl)cc2C(F)(F)F)c1` [Compound 2BF], the results for the EC50 at mouse TGR5 receptor and on human TGR5 receptor were 100 to 999 nM and below 100 nM, respectively.
The like results for `CCc1cnccc1-c1cccc([C@H](C)N(CCCCNC(=O)[C@@H](N)CS(=O)(=O)O)S(=O)(=O)c2cccc(Cl)c2C)c1` [Compound 31AD, (R)-2-amino-3-((4-(3-chloro-N-((S)-1-(3-(3-ethylpyridin-4-yl)phenyl)ethyl)-2-methylphenylsulfonamido)butyl)amino)-3-oxopropane-1-sulfonic acid] were, in that order, below 100 nM and below 100 nM.
On to `Cc1c(Cl)cccc1S(=O)(=O)N1CCN(C(=O)CCC(=O)O)CC1c1cccc(-c2ccncc2)c1` (centres unmarked) [Compound 46AF, 4-(4-((3-chloro-2-methylphenyl)sulfonyl)-3-(3-(pyridin-4-yl)phenyl)piperazin-1-yl)-4-oxobutanoic acid], for which the EC50 at mouse TGR5 receptor and on human TGR5 receptor was 1000 to 30000 nM throughout.
On to `Cc1cnccc1-c1cccc([C@H](C)N(CCCC(=O)NCCS(=O)(=O)NCC(=O)O)S(=O)(=O)c2ccccc2C(F)(F)F)c1` [Compound 20BJ], for which the EC50 on mouse TGR5 receptor and at human TGR5 receptor was below 100 nM in each case.
Turning to `Cc1c(Cl)cccc1S(=O)(=O)N(CCCC(=O)O)[C@@H](C)c1cccc(-c2ccncc2)c1` [Compound 14AD, (S)-4-(3-chloro-2-methyl-N-(1-(3-(pyridin-4-yl)phenyl)ethyl)phenylsulfonamido)butanoic acid], the EC50 at mouse TGR5 receptor and on human TGR5 receptor was 100 to 999 nM throughout.
For the compound `Cc1c(Cl)cccc1S(=O)(=O)N1CCN(C(=O)CS(=O)(=O)O)CC1c1cccc(-c2ccncc2Cl)c1` (centres unmarked) [Compound 49AE, 2-(4-((3-chloro-2-methylphenyl)sulfonyl)-3-(3-(3-chloropyridin-4-yl)phenyl)piperazin-1-yl)-2-oxoethanesulfonic acid], the 50% effective concentration (EC50) at mouse TGR5 receptor is below 100 nM; on human TGR5 receptor it was 100 to 999 nM.
For `Cc1cnsc1-c1cccc([C@H](C)N(CCCC(=O)NCCS(=O)(=O)O)S(=O)(=O)c2cccc(Cl)c2C)c1` [Compound 20BP, (S)-2-(4-(3-chloro-2-methyl-N-(1-(3-(4-methylisothiazol-5-yl)phenyl)ethyl)phenylsulfonamido)butanamido)ethanesulfonic acid] the same measures were 1000 to 30000 nM and 100 to 999 nM.
For `COC(=O)c1cnccc1-c1cccc(C(C)(C)NS(=O)(=O)c2ccccc2C(F)(F)F)c1` [Compound 6, Methyl 4-(3-(2-(2-(trifluoromethyl)phenylsulfonamido)propan-2-yl)phenyl)nicotinate] the same measures were 1000 to 30000 nM and below 100 nM.
For `Cc1cnccc1-c1cccc(CN(CCCNC(=O)NCS(=O)(=O)O)S(=O)(=O)c2cccc(Cl)c2C)c1` [Compound 28AI, (3-(3-(3-chloro-2-methyl-N-(3-(3-methylpyridin-4-yl)benzyl)phenylsulfonamido)propyl)ureido)methanesulfonic acid] the same measures were 100 to 999 nM and 100 to 999 nM.
As for `CCc1cnccc1-c1cccc([C@H](C)N(CCCCC(=O)O)S(=O)(=O)c2cccc(Cl)c2C)c1` [Compound 16AG, (S)-5-(3-chloro-N-(1-(3-(3-ethylpyridin-4-yl)phenyl)-ethyl)-2-methylphenyl-sulfonamido)pentanoic acid], the EC50 on mouse TGR5 receptor and on human TGR5 receptor was below 100 nM in each case.
With `Cc1cnccc1-c1cccc(C2CN(C(=O)CS(=O)(=O)O)CCN2S(=O)(=O)c2ccccc2C(F)(F)F)c1` (centres unmarked) [Compound 49AG, 2-(3-(3-(3-methylpyridin-4-yl)phenyl)-4-((2-(trifluoromethyl)phenyl)sulfonyl)piperazin-1-yl)-2-oxoethanesulfonic acid], the results for the EC50 at mouse TGR5 receptor and at human TGR5 receptor were below 100 nM and 100 to 999 nM, respectively.
The like results for `Cc1c(Cl)cccc1S(=O)(=O)N(CCCC(=O)NCCS(=O)(=O)NCC(=O)O)[C@@H](C)c1cccc(-c2ccncc2CO)c1` [Compound 20BS, (S)-2-(4-(3-chloro-N-(1-(3-(3-(hydroxymethyl)pyridin-4-yl)phenyl)ethyl)-2-methylphenylsulfonamido)butanamido)ethanesulfonamido acetic acid] were, in that order, below 100 nM and 100 to 999 nM.
For `CC(=O)N1CCN(S(=O)(=O)c2ccccc2C(F)(F)F)C(c2cccc(-c3ccncc3C)c2)C1` (centres unmarked) [Compound 45, 1-(3-(3-(3-methylpyridin-4-yl)phenyl)-4-((2-(trifluoromethyl)phenyl)sulfonyl)piperazin-1-yl)ethanone] the same measures were below 100 nM and 100 to 999 nM.
The like results for `Cc1cnccc1-c1cccc([C@H](C)NS(=O)(=O)c2ccccc2C(F)(F)F)c1` [Compound 5AR, (S)-N-(1-(3-(3-methylpyridin-4-yl)phenyl)ethyl)-2-(trifluoromethyl)benzenesulfonamide] were, in that order, 100 to 999 nM and below 100 nM.
Turning to `COc1cnccc1-c1cccc(C(C)(C)NS(=O)(=O)c2cc(Cl)ccc2[N+](=O)[O-])c1` [Compound 2BH], the EC50 on mouse TGR5 receptor and on human TGR5 receptor was below 100 nM throughout.
As to `Cc1cnccc1-c1cccc([C@H](C)N(CCCCC(=O)NCCOCCNS(=O)(=O)CC(=O)O)S(=O)(=O)c2cccc(Cl)c2C)c1` [Compound 26AD], the EC50 on mouse TGR5 receptor and at human TGR5 receptor was below 100 nM throughout.
Turning to `Cc1cnccc1-c1cccc(C(C)(C)N(CCCC(=O)N[C@@H](C)C(=O)O)S(=O)(=O)c2cccc(Cl)c2C)c1` [Compound 21AF, (S)-2-(4-(3-chloro-2-methyl-N-(2-(3-(3-methylpyridin-4-yl)phenyl)propan-2-yl)phenylsulfonamido)butanamido)propanoic acid], the half-maximal effective concentration (EC50) on mouse TGR5 receptor and at human TGR5 receptor was below 100 nM throughout.
As for `Cc1cnccc1-c1cccc(C2CN(C(=O)CCC(=O)O)CCN2S(=O)(=O)c2cccc(Cl)c2Cl)c1` (centres unmarked) [Compound 46AK, 4-(4-((2,3-dichlorophenyl)sulfonyl)-3-(3-(3-methylpyridin-4-yl)phenyl)piperazin-1-yl)-4-oxobutanoic acid], the EC50 is below 100 nM at mouse TGR5 receptor and 100 to 999 nM at human TGR5 receptor.
Turning to `Cc1c(Cl)cccc1S(=O)(=O)N[C@@H](C)c1cccc(-n2ccncc2=O)c1` [Compound 12, (S)-3-chloro-2-methyl-N-(1-(3-(2-oxopyrazin-1(2H)-yl)phenyl)ethyl)benzenesulfonamide], the EC50 on mouse TGR5 receptor was in the range of 1000 to 30000 nM; on human TGR5 receptor, 100 to 999 nM.
The like results for `Cc1cncnc1-c1cccc(C(C)(C)NS(=O)(=O)c2ccccc2C(F)(F)F)c1` [Compound 6AA, N-(2-(3-(5-methylpyrimidin-4-yl)phenyl)propan-2-yl)-2-(trifluoromethyl)benzenesulfonamide] were, in that order, 1000 to 30000 nM and 1000 to 30000 nM.
